Assay results reported in US12606541B2, “PPARg modulators and methods of use” (Eisai R&D Management Co., Ltd., priority 2020, dated 2026).
Where two headings read alike, the source gives them in different places.

Tests used:
UM-UC-9 engineered cells = assay: Cell proliferation / short-term viability assay, CellTiter-Glo 144 h; format: cell-based, human; settings: read-out: CTGlo 144 h UMUC9.5, G150
Procedure: Cell Seeding for Proliferation Assay
UM-UC-9 engineered cells were cultured in Dulbecco's Modified Eagle Medium (DMEM) supplemented with 10% FBS, 25 mM glucose (high glucose), 4.0 mM L-glutamine, 2.0 mM GlutaMAX™, 1.0 mM pyruvate, 1.0% non-essential amino acids (NEAA) in a 95% humidified incubator at 37° C. with 5% CO2. Cell banks of UM-UC-9 engineered assay-ready cells (ARCs) were prepared from a very active growth stage. Vials of ARCs containing approximately 5×10^6 cells per vial were stored in liquid nitrogen vapor phase cryostorage until use.
For making assay plates, ARCs were recovered from cryostorage, strained in a […] cell strainer, verified for cell viability >90% and counted using a cell counter (Cellometer Auto 1000, Nexelom). Each cell line was seeded into 384-well plates (50 μl/well) using DMEM medium at a density previously determined to be in log growth phase 7 days post-seeding (500 cells/well) using a bulk reagent dispenser (Multidrop™ Combi, Thermo Scientific) with a large-bore plastic-tip cassette pre-sanitized with 70% ethanol. One plate of cells was designated as the pretreatment time-zero (T0) control. Freshly seeded plates were allowed to sit lidded for 30 minutes within a biosafety cabinet for cells to settle distributed within the plate wells uniformly and then placed into an automated incubator (STX110, Liconic) at 37° C., 5% CO2, and 95% relative humidity.
Preparation of Test Compound in Assay-Ready Plate
Compounds were stored in a low-temperature sample archive as 10 mM dimethyl sulfoxide (DMSO) solutions at −20° C. under reduced humidity (−45° C. dew point) and protected from light. All samples in the automated archive are stored in 2D barcoded polypropylene tubes, tracked through a laboratory information management system (LIMS), and have been verified for identity and purity by NMR (Chemistry, H3 Biomedicine) and by LCMS (Analytical Chemistry, H3 Biomedicine) at the time of sample registration. Identity by mass matching and purity are again verified at the time of sample request fulfillment by redundant LCMS methods (acidic and basic separation protocols; Analytical Chemistry, H3 Biomedicine). Samples retrieved from low-temperature archive storage were solubilized by heated sonication (Bransonic® Ultrasonic Bath, Branson), transferred (Microlab Starlet, Hamilton) and serially-diluted (Viaflo Assist, Integra) by low-volume liquid handlers, and tracked in LIMS by automation log files to create a ID barcoded master dose-response plate (MDR) to serve as a standard source for all assay-ready plates (ARP) used within an experiment. ARPs prepared by acoustic transfer (ATS-100, EDC) of nL volumes from the MDR source were heat-sealed (PlateLoc, Agilent) and stored at −20° C. prior to use (<7 days from production). Tracking of liquid transfers via acoustic dispenser log files were used to update the LIMS system for all ARP plate maps.
Measurement of Pretreatment Control Cells and Sample Anti-Proliferative Effects on Treated Cells
On day 0 (pretreatment cells) or day 7 (treated cells), a cell proliferation assay was performed using an automated robotic assay platform (ACell, High-Res Biosolutions). Cell ARP's were removed from incubation, their plate lid discarded, and using a bulk reagent dispenser (Multidrop™ Combi, Thermo Scientific with a small-bore metal-tip cassette) 25 μL (1/2 volume) of Cell Titer-Glo® 2.0 Cell Viability Assay reagent (Promega) was added to wells of columns 1-23 (column 24 will be used as plate background or positive control). Cell ARP's were incubated at room temperature in an automation hotel position for a total of 1.0 minute while the next plate was delivered to the bulk reagent dispenser and then lid-free cell ARP's were returned to incubate at 37° C. for 2.5 hours. […]

His6-TEV-PPARγ-(234-505) = target: T1, His6-TEV-PPARγ-(234-505) (Homo sapiens, UniProt P37231); assay: TR-FRET Assay to Measure Co-R Peptide Recruitment to PPARγ; format: biochemical; settings: Co-R peptide (SMRT-ID2) recruitment; top final concentration 20 μM; read-out: TR-FRET i-Ag; AC50
T1 construct: The His6-TEV-PPARγ-(234-505) protein for assay was expressed and purified; TEV cleavage site (N); made in house
T1 sequence (P37231 234-505): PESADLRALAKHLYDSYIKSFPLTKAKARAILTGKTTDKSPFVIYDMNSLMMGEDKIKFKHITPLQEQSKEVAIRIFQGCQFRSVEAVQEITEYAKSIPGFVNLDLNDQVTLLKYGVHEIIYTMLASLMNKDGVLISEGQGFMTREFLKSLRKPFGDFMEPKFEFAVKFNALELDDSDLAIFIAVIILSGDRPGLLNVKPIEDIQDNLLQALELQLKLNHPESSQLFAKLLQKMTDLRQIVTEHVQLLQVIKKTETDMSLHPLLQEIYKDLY
How it was run: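 Corepressor recruitment is measured by adding terbium-labeled anti-His antibody and FITC SMRT-ID2 peptide, at 5 and 200 nM final, after a 20-minute room-temperature protein–compound incubation. After one further hour, signal is converted to percent response between DMSO and 500 nM T0070907 wells.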

Row | Structure (SMILES) | IC50 (UM-UC-9 engineered cells) [nM] | AC50 (His6-TEV-PPARγ-(234-505)) [nM] | IC50 (UM-UC-9 engineered cells; Homo sapiens, UM-UC-9, 144 h) [nM] | IC50 (UM-UC-9 engineered cells; listed as 101a) [nM]
1 | COc1cc(-c2cc(C(=O)N3CCC(C(=O)NC4CCC(C)CC4)CC3)n[nH]2)c(Cl)cn1 (mixture of isomers) [Example 101, 1-(5-(5-chloro-2-methoxypyridin-4-yl)-1H-pyrazole-3-carbonyl)-N-((1s,4s)-4-methylcyclohexyl)piperidine-4-carboxamide and 1-(5-(5-chloro-2-methoxypyridin-4-yl)-1H-pyrazole-3-carbonyl)-N-((1r,4r)-4-methylcyclohexyl)piperidine-4-carboxamide] | 305 | 29.4 | – | –
2 | COc1cc(-c2[nH]nc(C(=O)N3CCC(C(=O)NC4CCC(C)CC4)CC3)c2F)ccn1 (mixture of isomers) [Example 102] | – | 321 | 643 | –
3 | COc1cc(-c2cc(C(=O)N3CCC(C(=O)NC4CCC(C)CC4)CC3)n[nH]2)ccn1 (mixture of isomers) [Example 105, 1-(5-(2-methoxypyridin-4-yl)-1H-pyrazole-3-carbonyl)-N-(4-methylcyclohexyl)piperidine-4-carboxamide] | – | 537 | 1020 | –
4 | COc1cc(-c2[nH]nc(C(=O)N3CCC(C(=O)NC4CCC(C)CC4)CC3)c2Cl)ccn1 (mixture of isomers) [Example 110, 1-[4-chloro-5-(2-methoxypyridin-4-yl)-1H-pyrazole-3-carbonyl]-N-[(1s,4s)-4-methylcyclohexyl]piperidine-4-carboxamide and 1-[4-chloro-5-(2-methoxypyridin-4-yl)-1H-pyrazole-3-carbonyl]-N-[(1r,4r)-4-methylcyclohexyl]piperidine-4-carboxamide] | 1210 | 575 | – | –
5 | COc1cc(-c2cc(C(=O)N3CCC(C(=O)NC4CCC(C)CC4)CC3)n[nH]2)c(F)cn1 (mixture of isomers) [Example 114, 1-(5-(5-fluoro-2-methoxypyridin-4-yl)-1H-pyrazole-3-carbonyl)-N-((1s,4s)-4-methylcyclohexyl)piperidine-4-carboxamide and 1-(5-(5-fluoro-2-methoxypyridin-4-yl)-1H-pyrazole-3-carbonyl)-N-((1r,4r)-4-methylcyclohexyl)piperidine-4-carboxamide] | 120 | 78.5 | – | –
6 | COc1cc(-c2cc(C(=O)N3CCC(C(=O)NC4CCC(C(F)(F)F)CC4)CC3)n[nH]2)c(Cl)cn1 (mixture of isomers) [Example 118, 1-[5-(5-chloro-2-methoxypyridin-4-yl)-1H-pyrazole-3-carbonyl]-N-[(1s,4s)-4-(trifluoromethyl)cyclohexyl]piperidine-4-carboxamide and 1-[5-(5-chloro-2-methoxypyridin-4-yl)-1H-pyrazole-3-carbonyl]-N-[(1r,4r)-4-(trifluoromethyl)cyclohexyl]piperidine-4-carboxamide] | 121 | – | – | –
7 | COc1cc(-c2cc(C(=O)N3CCC(C(=O)NC4COC(C)OC4)CC3)n[nH]2)c(Cl)cn1 (mixture of isomers) [Example 121, 1-[5-(5-Chloro-2-methoxypyridin-4-yl)-1H-pyrazole-3-carbonyl]-N-(2-methyl-1,3-dioxan-5-yl) piperidine-4-carboxamide] | – | 807 | 2220 | –
8 | COc1cc(-c2cc(C(=O)N3CCC(C(=O)NC4CCC(O)(C(F)(F)F)CC4)CC3)n[nH]2)c(Cl)cn1 (mixture of isomers) [Example 144, 1-(5-(5-chloro-2-methoxypyridin-4-yl)-1H-pyrazole-3-carbonyl)-N-(4-hydroxy-4-(trifluoromethyl)cyclohexyl)piperidine-4-carboxamide] | – | 44.7 | 334 | –
9 | COc1cc(-c2cc(C(=O)N3CCC(C(=O)NCC4CC(OC)C4)CC3)n[nH]2)c(Cl)cn1 (mixture of isomers) [Example 145, 1-(5-(5-chloro-2-methoxypyridin-4-yl)-1H-pyrazole-3-carbonyl)-N-((3-methoxycyclobutyl)methyl)piperidine-4-carboxamide] | – | 688 | 4120 | –
10 | COc1cc(-c2cc(C(=O)N3CCC(C(=O)NC4CC(C)CC(C)(C)C4)CC3)n[nH]2)c(Cl)cn1 (mixture of isomers) [Example 150, 1-(5-(5-chloro-2-methoxypyridin-4-yl)-1H-pyrazole-3-carbonyl)-N-(3,3,5-trimethylcyclohexyl)piperidine-4-carboxamide] | – | 269 | 779 | –
11 | COc1cc(-c2cc(C(=O)N3CCC(C(=O)NC(C)c4cccc(Cl)c4)CC3)n[nH]2)c(Cl)cn1 (racemic) [Example 115, (R)-1-[5-(5-chloro-2-methoxypyridin-4-yl)-1H-pyrazole-3-carbonyl]-N-[1-(3-chlorophenyl)ethyl]piperidine-4-carboxamide and (S)-1-[5-(5-chloro-2-methoxypyridin-4-yl)-1H-pyrazole-3-carbonyl]-N-[1-(3-chlorophenyl)ethyl]piperidine-4-carboxamide] | 428 | – | – | –
12 | COc1cc(-c2cc(C(=O)N3CCC(C(=O)NC4CCC(C)CC4)CC3)n[nH]2)c(Cl)cn1 (single isomer, unassigned) [Example 101-A] | – | – | – | > 10000
13 | COc1cc(-c2cc(C(=O)N3[C@@H]4CC[C@H]3C[C@H](C(=O)NC3CCC(C#N)(C(F)(F)F)CC3)C4)n[nH]2)c(F)cn1 (stereo partly drawn) [Example 438, (1R,3s,5S)—N-(4-cyano-4-(trifluoromethyl)cyclohexyl)-8-(5-(5-fluoro-2-methoxypyridin-4-yl)-1H-pyrazole-3-carbonyl)-8-azabicyclo[3.2.1]octane-3-carboxamide] | – | – | 1150 | –
14 | COc1cc(-c2cc(C(=O)N3CC[C@H](C(=O)NCc4nc(C)cnc4Cl)CC34CC4)n[nH]2)c(F)cn1 [Example 451, (S)—N-((3-chloro-6-methylpyrazin-2-yl)methyl)-4-(5-(5-fluoro-2-methoxypyridin-4-yl)-1H-pyrazole-3-carbonyl)-4-azaspiro[2.5]octane-7-carboxamide] | – | – | 9.6 | –
15 | COc1cc(-c2cc(C(=O)N3CC[C@H](C(=O)NCc4ncc(C#N)cn4)CC34CC4)n[nH]2)c(F)cn1 [Example 456, (S)—N-((5-cyanopyrimidin-2-yl)methyl)-4-(5-(5-fluoro-2-methoxypyridin-4-yl)-1H-pyrazole-3-carbonyl)-4-azaspiro[2.5]octane-7-carboxamide] | – | – | 312 | –
16 | COc1cnc(CNC(=O)[C@H]2CCN(C(=O)c3cc(-c4cc(OC)ncc4F)[nH]n3)C3(CC3)C2)c(C(F)(F)F)c1 [Example 527, (S)-4-(5-(5-fluoro-2-methoxypyridin-4-yl)-1H-pyrazole-3-carbonyl)-N-((5-methoxy-3-(trifluoromethyl)pyridin-2-yl)methyl)-4-azaspiro[2.5]octane-7-carboxamide] | – | – | 5 | –
